Measured values reported in patent US20250136607A1 (REGOR PHARMACEUTICALS, INC., priority 2021, published 2025).

target: Protein arginine deiminase 4 (PAD4) (Homo sapiens, UniProt Q9UM07); assay: PAD4 ammonia release assay; assay type: biochemical; conditions: PAD4 activity comparison; read-out: PAD4 Ammonia assay IC50
Method in brief: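 PAD4 (20 nM, 2× working solution) was preincubated with compound for 15 min at RT in 100 mM HEPES pH 8.0, 2 mM CaCl2, 50 mM NaCl, 0.1 mM TCEP, BSA at 1.25% DMSO. BAEE (600 μM, 2× mix) reacted 60 min, then OPA/DTT/EDTA detection for 120 min. IC50 came from a 4-parameter fit, normalized to 50 μM reference (100%) and DMSO (0%).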

Protein arginine deiminase 4 (PAD4), sequence (Q9UM07 whole entry): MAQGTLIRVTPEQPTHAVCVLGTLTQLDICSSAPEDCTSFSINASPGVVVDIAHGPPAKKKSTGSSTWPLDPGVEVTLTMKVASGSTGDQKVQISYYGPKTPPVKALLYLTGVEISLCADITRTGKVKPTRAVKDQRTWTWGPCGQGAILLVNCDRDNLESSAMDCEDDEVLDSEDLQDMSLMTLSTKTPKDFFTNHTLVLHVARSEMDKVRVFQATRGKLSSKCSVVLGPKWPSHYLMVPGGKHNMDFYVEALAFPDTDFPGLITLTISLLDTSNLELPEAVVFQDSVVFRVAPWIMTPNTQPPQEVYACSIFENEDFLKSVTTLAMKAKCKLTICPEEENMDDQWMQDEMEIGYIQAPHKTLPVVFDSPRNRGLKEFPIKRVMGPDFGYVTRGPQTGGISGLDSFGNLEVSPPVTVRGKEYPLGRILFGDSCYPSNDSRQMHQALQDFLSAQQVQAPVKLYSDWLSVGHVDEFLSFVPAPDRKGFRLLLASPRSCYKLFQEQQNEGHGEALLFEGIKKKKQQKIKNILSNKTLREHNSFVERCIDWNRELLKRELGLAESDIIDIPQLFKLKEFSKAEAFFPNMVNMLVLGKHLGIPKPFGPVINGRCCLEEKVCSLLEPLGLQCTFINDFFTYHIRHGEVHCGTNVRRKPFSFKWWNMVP

IC50, 207 nM:
CCC1CNc2cccc3cc(-c4nc5cc(C(=O)N6C[C@H]7CC[C@@H]6[C@@H]7N)cc(OC)c5n4C)n1c23 (stereo partly drawn) [Example 102, ((1R,4R,7R)-7-amino-2-azabicyclo[2.2.1]heptan-2-yl)(2-(3-ethyl-2,3-dihydro-1H-pyrrolo[1,2,3-de]quinoxalin-5-yl)-7-methoxy-1-methyl-1H-benzo[d]imidazol-5-yl)methanone]

same assay, conditions: PAD4 ammonia release assay, BAEE substrate, 60 min at RT; read-out: Average IC50 Abs

IC50, 500 to 5000 nM:
CCC1CN(CCCO)c2cccc3cc(-c4nc5cc(C(=O)N6C[C@H]7CC[C@@H]6[C@@H]7N)c(F)c(F)c5n4C)n1c23 (stereo partly drawn) [Example 78, ((1R,4R,7R)-7-amino-2-azabicyclo[2.2.1]heptan-2-yl)(2-(3-ethyl-1-(3-hydroxypropyl)-2,3-dihydro-1H-pyrrolo[1,2,3-de]quinoxalin-5-yl)-6,7-difluoro-1-methyl-1H-benzo[d]imidazol-5-yl)methanone]
CC(C)[C@@H]1CNc2cccc3cc(-c4nc5cc(C(=O)N6C[C@H]7CC[C@@H]6[C@@H]7N)cc(F)c5n4C)n1c23 [Example 105, ((1R,4R,7R)-7-amino-2-azabicyclo[2.2.1]heptan-2-yl)(7-fluoro-2-((R)-3-isopropyl-2,3-dihydro-1H-pyrrolo[1,2,3-de]quinoxalin-5-yl)-1-methyl-1H-benzo[d]imidazol-5-yl)methanone]
CCC1C(=O)Nc2c(Cl)ccc3cc(-c4nc5cc(C(=O)N6C[C@H]7CC[C@@H]6[C@@H]7N)cc(F)c5n4C)n1c23 (stereo partly drawn) [Example 124, 5-(5-((1R,4R,7R)-7-amino-2-azabicyclo[2.2.1]heptane-2-carbonyl)-7-fluoro-1-methyl-1H-benzo[d]imidazol-2-yl)-9-chloro-3-ethyl-1H-pyrrolo[1,2,3-de]quinoxalin-2(3H)-one]
CCC1C(=O)Nc2c(F)ccc3cc(-c4nc5cc(C(=O)N6C[C@H]7CC[C@@H]6[C@@H]7N)cc(F)c5n4C)n1c23 (stereo partly drawn) [Example 126, 5-(5-((1R,4R,7R)-7-amino-2-azabicyclo[2.2.1]heptane-2-carbonyl)-7-fluoro-1-methyl-1H-benzo[d]imidazol-2-yl)-3-ethyl-9-fluoro-1H-pyrrolo[1,2,3-de]quinoxalin-2(3H)-one]

IC50, ≤ 100 nM:
CC[C@H]1CN(CCCO)c2cccc3cc(-c4nc5cc(C(=O)N6C[C@H]7CC[C@@H]6[C@@H]7N)cc(F)c5n4CC)n1c23 [Example 98, ((1R,4R,7R)-7-amino-2-azabicyclo[2.2.1]heptan-2-yl)(1-ethyl-2-((S)-3-ethyl-1-(3-hydroxypropyl)-2,3-dihydro-1H-pyrrolo[1,2,3-de]quinoxalin-5-yl)-7-fluoro-1H-benzo[d]imidazol-5-yl)methanone]
Cn1c(-c2cc3ccc(C(F)(F)F)c4c3n2C(C2CC2)CN4)nc2cc(C(=O)N3C[C@H]4CC[C@@H]3[C@@H]4N)cc(F)c21 (stereo partly drawn) [Example 121, [(1R,4R,7R)-7-amino-2-azabicyclo[2.2.1]heptan-2-yl]-[2-[11-cyclopropyl-7-(trifluoromethyl)-1,9-diazatricyclo[6.3.1.0^4,12]dodeca-2,4,6,8(12)-tetraen-2-yl]-7-fluoro-1-methyl-benzimidazol-5-yl]methanone]

IC50, 100 to 500 nM:
CCC1CN(CCCO)c2cccc3cc(-c4nc5cc(C(=O)N6C[C@H]7CC[C@@H]6[C@@H]7N)cc(F)c5n4CC4CC4)n1c23 (stereo partly drawn) [Example 77, ((1R,4R,7R)-7-amino-2-azabicyclo[2.2.1]heptan-2-yl)(1-(cyclopropylmethyl)-2-(3-ethyl-1-(3-hydroxypropyl)-2,3-dihydro-1H-pyrrolo[1,2,3-de]quinoxalin-5-yl)-7-fluoro-1H-benzo[d]imidazol-5-yl)methanone]
CCC1CN(CCO)c2cccc3cc(-c4nc5cc(C(=O)N6C[C@H](N)C[C@@H](F)C6)cc(OC)c5n4C)n1c23 (stereo partly drawn) [Example 79, ((3R,5R)-3-amino-5-fluoropiperidin-1-yl)(2-(3-ethyl-1-(2-hydroxyethyl)-2,3-dihydro-1H-pyrrolo[1,2,3-de]quinoxalin-5-yl)-7-methoxy-1-methyl-1H-benzo[d]imidazol-5-yl)methanone]
CCC1CN(CCC(C)(C)O)c2cccc3cc(-c4nc5cc(C(=O)N6C[C@H](N)C[C@@H](F)C6)cc(OC)c5n4C)n1c23 (stereo partly drawn) [Example 83, ((3R,5R)-3-amino-5-fluoropiperidin-1-yl)(2-(3-ethyl-1-(3-hydroxy-3-methylbutyl)-2,3-dihydro-1H-pyrrolo[1,2,3-de]quinoxalin-5-yl)-7-methoxy-1-methyl-1H-benzo[d]imidazol-5-yl)methanon]
CCC1CN(CCCOC)c2cccc3cc(-c4nc5cc(C(=O)N6C[C@H](N)C[C@@H](F)C6)cc(OC)c5n4C)n1c23 (stereo partly drawn) [Example 84, ((3R,5R)-3-amino-5-fluoropiperidin-1-yl)(2-(3-ethyl-1-(3-methoxypropyl)-2,3-dihydro-1H-pyrrolo[1,2,3-de]quinoxalin-5-yl)-7-methoxy-1-methyl-1H-benzo[d]imidazol-5-yl)methanone]
CCC1CN(CC(C)(C)CO)c2cccc3cc(-c4nc5cc(C(=O)N6C[C@H]7CC[C@@H]6[C@@H]7N)cc(F)c5n4C)n1c23 (stereo partly drawn) [Example 89, ((1R,4R,7R)-7-amino-2-azabicyclo[2.2.1]heptan-2-yl)(2-(3-ethyl-1-(3-hydroxy-2,2-dimethylpropyl)-2,3-dihydro-1H-pyrrolo[1,2,3-de]quinoxalin-5-yl)-7-fluoro-1-methyl-1H-benzo[d]imidazol-5-yl)methanone]
C#CCn1c(-c2cc3cccc4c3n2C(CC)CN4CCCO)nc2cc(C(=O)N3C[C@H]4CC[C@@H]3[C@@H]4N)cc(OC)c21 (stereo partly drawn) [Example 90, ((1R,4R,7R)-7-amino-2-azabicyclo[2.2.1]heptan-2-yl)(2-(3-ethyl-1-(3-hydroxypropyl)-2,3-dihydro-1H-pyrrolo[1,2,3-de]quinoxalin-5-yl)-7-methoxy-1-(prop-2-yn-1-yl)-1H-benzo[d]imidazol-5-yl)methanone]
CCC1CN(CCCO)c2cccc3cc(-c4nc5cc(C(=O)N6C[C@H]7CC[C@@H]6[C@@H]7N)cc(F)c5n4Cc4ccco4)n1c23 (stereo partly drawn) [Example 93, ((1R,4R,7R)-7-amino-2-azabicyclo[2.2.1]heptan-2-yl)(2-(3-ethyl-1-(3-hydroxypropyl)-2,3-dihydro-1H-pyrrolo[1,2,3-de]quinoxalin-5-yl)-7-fluoro-1-(furan-2-ylmethyl)-1H-benzo[d]imidazol-5-yl)methanone]
CCC1CN(CCCO)c2cccc3cc(-c4nc5cc(C(=O)N6C[C@H](N)C[C@@H](F)C6)cc(F)c5n4CC)n1c23 (stereo partly drawn) [Example 99, ((3R,5R)-3-amino-5-fluoropiperidin-1-yl)(1-ethyl-2-(3-ethyl-1-(3-hydroxypropyl)-2,3-dihydro-1H-pyrrolo[1,2,3-de]quinoxalin-5-yl)-7-fluoro-1H-benzo[d]imidazol-5-yl)methanone]
CCC1CNc2cccc3cc(-c4nc5cc(C(=O)N6C[C@H]7CC[C@@H]6[C@@H]7N)cc(OC)c5n4C)n1c23 (stereo partly drawn) [Example 102, ((1R,4R,7R)-7-amino-2-azabicyclo[2.2.1]heptan-2-yl)(2-(3-ethyl-2,3-dihydro-1H-pyrrolo[1,2,3-de]quinoxalin-5-yl)-7-methoxy-1-methyl-1H-benzo[d]imidazol-5-yl)methanone]
Cn1c(-c2cc3cc(C#N)cc4c3n2[C@@H](C2CC2)CN4)nc2cc(C(=O)N3C[C@H]4CC[C@@H]3[C@@H]4N)cc(F)c21 [Example 118, (S)-5-(5-((1R,4R,7R)-7-amino-2-azabicyclo[2.2.1]heptane-2-carbonyl)-7-fluoro-1-methyl-1H-benzo[d]imidazol-2-yl)-3-cyclopropyl-2,3-dihydro-1H-pyrrolo[1,2,3-de]quinoxaline-8-carbonitrile]

IC50, > 5000 nM:
CC[C@@H]1CN(CCCO)c2cccc3cc(-c4nc5cc(C(=O)N6C[C@H]7CC[C@@H]6[C@@H]7N)cc(F)c5n4CC)n1c23 [Example 97, ((1R,4R,7R)-7-amino-2-azabicyclo[2.2.1]heptan-2-yl)(1-ethyl-2-((R)-3-ethyl-1-(3-hydroxypropyl)-2,3-dihydro-1H-pyrrolo[1,2,3-de]quinoxalin-5-yl)-7-fluoro-1H-benzo[d]imidazol-5-yl)methanone]
Cn1c(-c2cc3cc(C#N)cc4c3n2[C@H](C2CC2)CN4)nc2cc(C(=O)N3C[C@H]4CC[C@@H]3[C@@H]4N)cc(F)c21 [Example 117, (R)-5-(5-((1R,4R,7R)-7-amino-2-azabicyclo[2.2.1]heptane-2-carbonyl)-7-fluoro-1-methyl-1H-benzo[d]imidazol-2-yl)-3-cyclopropyl-2,3-dihydro-1H-pyrrolo[1,2,3-de]quinoxaline-8-carbonitrile]
Cn1c(-c2cc3c(C#N)ccc4c3n2[C@H](C2CC2)CN4)nc2cc(C(=O)N3C[C@H]4CC[C@@H]3[C@@H]4N)cc(F)c21 [Example 119, (R)-5-(5-((1R,4R,7R)-7-amino-2-azabicyclo[2.2.1]heptane-2-carbonyl)-7-fluoro-1-methyl-1H-benzo[d]imidazol-2-yl)-3-cyclopropyl-2,3-dihydro-1H-pyrrolo[1,2,3-de]quinoxaline-7-carbonitrile]
Cn1c(-c2cc3c(C#N)ccc4c3n2[C@@H](C2CC2)CN4)nc2cc(C(=O)N3C[C@H]4CC[C@@H]3[C@@H]4N)cc(F)c21 [Example 120, (S)-5-(5-((1R,4R,7R)-7-amino-2-azabicyclo[2.2.1]heptane-2-carbonyl)-7-fluoro-1-methyl-1H-benzo[d]imidazol-2-yl)-3-cyclopropyl-2,3-dihydro-1H-pyrrolo[1,2,3-de]quinoxaline-7-carbonitrile]
CCC1CNc2c(Cl)ccc3cc(-c4nc5cc(C(=O)N6C[C@H]7CC[C@@H]6[C@@H]7N)cc(F)c5n4C)n1c23 (stereo partly drawn) [Example 125, ((1R,4R,7R)-7-amino-2-azabicyclo[2.2.1]heptan-2-yl)(2-(9-chloro-3-ethyl-2,3-dihydro-1H-pyrrolo[1,2,3-de]quinoxalin-5-yl)-7-fluoro-1-methyl-1H-benzo[d]imidazol-5-yl)methanone]

same assay, conditions: SFC-separated stereoisomer pairs

Relative potency of separated isomers in the PAD4 biochemical assay, more potent than Example 97:
CC[C@H]1CN(CCCO)c2cccc3cc(-c4nc5cc(C(=O)N6C[C@H]7CC[C@@H]6[C@@H]7N)cc(F)c5n4CC)n1c23 [Example 98, ((1R,4R,7R)-7-amino-2-azabicyclo[2.2.1]heptan-2-yl)(1-ethyl-2-((S)-3-ethyl-1-(3-hydroxypropyl)-2,3-dihydro-1H-pyrrolo[1,2,3-de]quinoxalin-5-yl)-7-fluoro-1H-benzo[d]imidazol-5-yl)methanone]
